As a reminder, the IC50 is the midpoint of a concentration-inhibition curve.

Molecules are shown by their SMILES.

Experiment [1] has as its system non-small cell lung cancer cell line H460. The experiment is described as follows: H460 proliferation assay in the presence of 3 uM ASP9521 (AKR1C3 specific inhibitor). The format is cell-based, human. The settings on record: H460 cells, CellTiter-Glo, 72 hours, in the presence of 3 uM ASP9521 added 4 hours prior to compounds; read-out: CTG H460: Avg IC50 (nM) [Assay Condition: ASP9521]. In short, it runs like this:
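AKR1C3 blocked with 3 uM ASP9521 given 4 h ahead of test compounds. H460 cells, plated 24 h earlier, were then treated for 72 h at 37 °C in 5% CO2. CellTiter-Glo luminescence gave viability.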

Experiment [2] shares this test system. Briefly: In vitro human cancer cell line cytotoxicity (proliferation) assay in H460, CellTiter-Glo, 72 hours. It counts as cell-based. To be noted: DMSO condition (no AKR1C3 inhibitor), read-out: CTG H460: Avg IC50 (nM) [Assay Condition: DMSO]. In a few lines:
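IC50s in nM come from CellTiter-Glo viability read after 72 h of compound exposure. Compounds went in from 10 mM DMSO stocks onto H460 cells, which had been plated at 3×10^3 per well and grown 24 h beforehand at 37 °C, 5% CO2.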

The mark [3] stands for this setting: Homo sapiens, NCI-H460, 72 h, H460 cells.
[4] abbreviates: Homo sapiens, NCI-H460, H460 cells.

Regarding `O=[N+]([O-])c1ccc2c(c1Oc1ccc3nccn3c1)CC[C@H]2OP(=O)(N1CC1)N1CC1` [Example 383], the IC50 in experiment [1] was 4240 nM; in experiment [2] (setting [3]) it was 10 to 50 nM.
For `Cn1c(=O)n(C)c2cc(Oc3c([N+](=O)[O-])ccc4c3CCC4OP(=O)(N3CC3)N3CC3)ccc21` (stereo not drawn) [Example 94], the 50% inhibitory concentration (IC50) in experiment [1] was 1450 nM; in experiment [2] (H460 cells), 10 to 50 nM.
The matching figures for `CN1Cc2ccc(Oc3c([N+](=O)[O-])ccc4c3CCC4OP(=O)(N3CC3)N3CC3)cc2C1=O` (stereo not drawn) [Example 24]: 916 nM and less than 10 nM.
Regarding `Cn1cnc(-c2cccc(Oc3c([N+](=O)[O-])ccc4c3CC[C@@H]4OP(=O)(N3CC3)N3CC3)c2)c1` [Example 345], the IC50 in experiment [1] is 2110 nM; in experiment [2] (setting [4]) it was less than 10 nM.
Turning to `Cc1nc2cc(Oc3c([N+](=O)[O-])ccc4c3CCC4OP(=O)(N3CC3)N3CC3)ccc2n1C` (stereo not drawn) [Example 388], the IC50 in experiment [1] was 1430 nM; in experiment [2] (setting [3]), less than 10 nM.
The matching figures for `Cn1cnc2ccc(Oc3cc4c(cc3[N+](=O)[O-])CCC4OP(=O)(N3CC3)N3CC3)cc2c1=O` (stereo not drawn) [Example 194]: 1290 nM and 10 to 50 nM.
On to `O=[N+]([O-])c1ccc2c(c1Oc1cccc(C3CC3)c1)CCC2OP(=O)(N1CC1)N1CC1` (stereo not drawn) [Example 316], for which the half-inhibitory concentration (IC50) in experiment [1] was 781 nM; in experiment [2] (H460 cells), less than 10 nM.
Regarding `O=[N+]([O-])c1ccc2c(c1Oc1ccc(F)c(-n3cncn3)c1)CC[C@@H]2OP(=O)(N1CC1)N1CC1` [Example 438], the IC50 in experiment [1] was 416 nM; in experiment [2] (setting [3]) it was less than 10 nM.
The matching figures for `CN1Cc2ccc(Oc3cc4c(cc3[N+](=O)[O-])OCCC4OP(=O)(N3CC3)N3CC3)cc2C1=O` (single isomer, unassigned) [Example 201]: 605 nM and less than 10 nM.
On the same counts, the results for `O=[N+]([O-])c1ccc2c(c1Oc1ccc(-c3ccccn3)cc1)CC[C@@H]2OP(=O)(N1CC1)N1CC1` (single isomer, unassigned) [Example 40] are 929 nM and less than 10 nM.
As to `O=C1COCCN1c1cccc(Oc2c([N+](=O)[O-])ccc3c2CCC3OP(=O)(N2CC2)N2CC2)c1` (stereo not drawn) [Example 110], the IC50 in experiment [1] was 2420 nM; in experiment [2] (H460 cells), less than 10 nM.
The matching figures for `CC(C)COc1cccc(Oc2c([N+](=O)[O-])ccc3c2CCC3OP(=O)(N2CC2)N2CC2)c1` (stereo not drawn) [Example 484]: 1990 nM and less than 10 nM.
`O=[N+]([O-])c1ccc2c(c1Oc1ccc(-c3ccc(F)cn3)c(F)c1)CC[C@@H]2OP(=O)(N1CC1)N1CC1` [Example 275]: the IC50 in experiment [1] is 1350 nM; in experiment [2] (setting [3]), less than 10 nM.
On to `O=c1ccccn1-c1cccc(Oc2c([N+](=O)[O-])ccc3c2CCC3OP(=O)(N2CC2)N2CC2)c1` (stereo not drawn) [Example 80], for which the IC50 in experiment [1] was 909 nM; in experiment [2] (setting [3]), less than 10 nM.
The matching figures for `O=C1c2ccc(Oc3c([N+](=O)[O-])ccc4c3CCC4OP(=O)(N3CC3)N3CC3)cc2CN1C1CC1` (stereo not drawn) [Example 56]: 447 nM and less than 10 nM.
For `Cn1cc(-c2cc(Oc3c([N+](=O)[O-])ccc4c3CCC4OP(=O)(N3CC3)N3CC3)ccc2F)cn1` (stereo not drawn) [Example 330], the half-inhibitory concentration (IC50) was 2980 nM in experiment [1] and less than 10 nM in experiment [2] (H460 cells).
On the same counts, the results for `O=[N+]([O-])c1ccc2c(c1Oc1cccc(OC3CCC3)c1)CC[C@H]2OP(=O)(N1CC1)N1CC1` [Example 464] are 1390 nM and less than 10 nM.
On to `O=[N+]([O-])c1cc2oc(COP(=O)(N3CC3)N3CC3)cc2cc1Oc1cccc(-c2ccccn2)c1` [Example 536], for which the IC50 in experiment [1] was 651 nM; in experiment [2] (setting [3]), less than 10 nM.
The matching figures for `O=[N+]([O-])c1cc2oc(COP(=O)(N3CC3)N3CC3)cc2cc1Oc1ccnc(-c2ccccc2)c1` [Example 538]: 711 nM and less than 10 nM.
With `O=[N+]([O-])c1ccc2c(c1Oc1cccc(OCC3CC3)c1)CCC2OP(=O)(N1CC1)N1CC1` (stereo not drawn) [Example 480], the IC50 is 1760 nM in experiment [1] and less than 10 nM in experiment [2] (H460 cells).
On to `Cn1cc(Oc2cccc(Oc3c([N+](=O)[O-])ccc4c3CC[C@H]4OP(=O)(N3CC3)N3CC3)c2)cn1` [Example 455], for which the figures for the IC50 in experiment [1] and in experiment [2] (H460 cells) were 1660 nM and less than 10 nM, respectively.
On to `CC(OP(=O)(N1CC1)N1CC1)c1ccc([N+](=O)[O-])c(COc2ccc(C(=O)N(C)C)cn2)c1` (stereo not drawn) [Example 7], for which the IC50 is 3950 nM in experiment [1] and 10 to 50 nM in experiment [2] (setting [3]).
Turning to `CC(C)c1cc(Oc2c([N+](=O)[O-])ccc3c2CCC3OP(=O)(N2CC2)N2CC2)ccc1F` (stereo not drawn) [Example 332], the IC50 is 1960 nM in experiment [1] and less than 10 nM in experiment [2] (H460 cells).
The matching figures for `CNC(=O)c1ccc(Oc2c([N+](=O)[O-])ccc3c2OCCC3OP(=O)(N2CC2)N2CC2)cc1` (stereo not drawn) [Example 137]: 538 nM and less than 10 nM.
As for `C[C@@H](OP(=O)(N1CC1)N1CC1)c1cc2cc(Oc3ccc4c(c3)OC(F)(F)O4)c([N+](=O)[O-])cc2o1` [Example 550], the IC50 in experiment [1] is 2510 nM; in experiment [2] (setting [3]), less than 10 nM.
In the case of `Cc1nccc(-c2ccc(Oc3c([N+](=O)[O-])ccc4c3CC[C@H]4OP(=O)(N3CC3)N3CC3)cc2)n1` [Example 286], the IC50 in experiment [1] was 1870 nM; in experiment [2] (H460 cells), less than 10 nM.
With `O=[N+]([O-])c1ccc2c(c1Oc1ccc(F)c(-c3ccc(F)cc3)c1)CC[C@H]2OP(=O)(N1CC1)N1CC1` [Example 306], the results for the IC50 in experiment [1] and in experiment [2] (setting [4]) were 1990 nM and less than 10 nM, respectively.
The matching figures for `Cn1cnc2cc(Oc3c([N+](=O)[O-])ccc4c3CC[C@@H]4OP(=O)(N3CC3)N3CC3)ccc21` [Example 396]: 2480 nM and 10 to 50 nM.
In the case of `O=C(NC1CC1)c1ccc(Oc2cc3c(cc2[N+](=O)[O-])CCC3OP(=O)(N2CC2)N2CC2)cc1` (single isomer, unassigned) [Example 172], the figures for the IC50 in experiment [1] and in experiment [2] (setting [3]) were 4900 nM and 10 to 50 nM, respectively.
For `O=[N+]([O-])c1ccc2c(c1Oc1cccc(-c3ccc(F)cn3)c1)CCC2OP(=O)(N1CC1)N1CC1` (racemic) [Example 320], the IC50 in experiment [1] is 2230 nM; in experiment [2] (H460 cells), less than 10 nM.
Turning to `Cc1ccn(-c2cccc(Oc3c([N+](=O)[O-])ccc4c3CC[C@H]4OP(=O)(N3CC3)N3CC3)c2)n1` [Example 430], the values for the IC50 in experiment [1] and in experiment [2] (setting [3]) were 4860 nM and less than 10 nM, respectively.
In the case of `Cc1nnc(-c2cccc(Oc3c([N+](=O)[O-])ccc4c3CC[C@@H]4OP(=O)(N3CC3)N3CC3)c2)s1` [Example 349], the values for the IC50 in experiment [1] and in experiment [2] (setting [3]) were 498 nM and less than 10 nM, respectively.
As for `COc1cccc(Oc2c([N+](=O)[O-])ccc3c2CC[C@H]3OP(=O)(N2CC2)N2CC2)c1` [Example 448], the IC50 in experiment [1] was 647 nM; in experiment [2] (H460 cells) it was less than 10 nM.
For the molecule `Cc1ccnc(-c2ccc(Oc3c([N+](=O)[O-])ccc4c3CCC4OP(=O)(N3CC3)N3CC3)cc2)n1` (racemic) [Example 280], the figures for the IC50 in experiment [1] and in experiment [2] (H460 cells) were 1300 nM and less than 10 nM, respectively.
For `O=[N+]([O-])c1ccc2c(c1Oc1ccc(-c3ccc(O)cn3)cc1)CC[C@@H]2OP(=O)(N1CC1)N1CC1` [Example 290], the IC50 in experiment [1] was 274 nM; in experiment [2] (setting [3]) it was less than 10 nM.
Regarding `O=C1OCCN1c1cccc(Oc2c([N+](=O)[O-])ccc3c2CCC3OP(=O)(N2CC2)N2CC2)c1` (stereo not drawn) [Example 71], the IC50 in experiment [1] is 31.9 nM; in experiment [2] (H460 cells) it was less than 10 nM.
The matching figures for `O=[N+]([O-])c1ccc2c(c1Oc1ccc(F)c(OC(F)F)c1)CCC2OP(=O)(N1CC1)N1CC1` (racemic) [Example 475]: 509 nM and less than 10 nM.
With `CNC(=O)c1ccc(Oc2cc3c(cc2[N+](=O)[O-])CCC3OP(=O)(N2CC2)N2CC2)cc1` (single isomer, unassigned) [Example 150], the IC50 is 297 nM in experiment [1] and less than 10 nM in experiment [2] (setting [3]).
`O=[N+]([O-])c1ccc2c(c1Oc1cccc(-n3ccc(C4CC4)n3)c1)CCC2OP(=O)(N1CC1)N1CC1` (stereo not drawn) [Example 115]: the IC50 in experiment [1] is 4730 nM; in experiment [2] (setting [3]) it was 10 to 50 nM.
Take `O=C1c2cc(Oc3cc4c(cc3[N+](=O)[O-])CCC4OP(=O)(N3CC3)N3CC3)ccc2CN1C1CC1` (single isomer, unassigned) [Example 171]: the values for the IC50 in experiment [1] and in experiment [2] (H460 cells) were 1100 nM and less than 10 nM, respectively.
As for `Cn1cc(-c2cccc(Oc3c([N+](=O)[O-])ccc4c3CCC4OP(=O)(N3CC3)N3CC3)c2)cn1` (single isomer, unassigned) [Example 76], the results for the IC50 in experiment [1] and in experiment [2] (setting [3]) were 1120 nM and 10 to 50 nM, respectively.
On to `O=[N+]([O-])c1ccc2c(c1Oc1ccc(-c3ccc(Cl)cc3)cc1)CC[C@H]2OP(=O)(N1CC1)N1CC1` [Example 270], for which the IC50 is 5550 nM in experiment [1] and 10 to 50 nM in experiment [2] (H460 cells).
The matching figures for `CC(OP(=O)(N1CC1)N1CC1)c1cc2cc(Oc3cccc(C(=O)N(C)C)c3)c([N+](=O)[O-])cc2o1` (single isomer, unassigned) [Example 233]: 3890 nM and less than 10 nM.
Regarding `C[C@@H](OP(=O)(N1CC1)N1CC1)c1cc2cc(Oc3cncc(-c4ccccc4)c3)c([N+](=O)[O-])cc2o1` [Example 567], the IC50 in experiment [1] was 2110 nM; in experiment [2] (H460 cells), less than 10 nM.
As to `O=[N+]([O-])c1ccc2c(c1Oc1ccc(F)c(OCC(F)(F)F)c1)CC[C@H]2OP(=O)(N1CC1)N1CC1` [Example 431], the IC50 in experiment [1] is 238 nM; in experiment [2] (setting [3]) it was less than 10 nM.

Source of the values: patent US20260167656A1, “PHOSPHORAMIDATE COMPOUNDS AND USES THEREOF” (ALLORION THERAPEUTICS INC, priority 2022, published 2026).
